Assay results: the supplement of paper PMC10627819

Experiments:
[1] = test system: S. aureus DSM 20231; experiment: fitness (endpoint OD595 vs no drug) (fraction); higher = more growth
Procedure, shortened: (§1)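 At 37 °C, bacteria in TSB, LB Lennox or CY were grown in 384-well plates from a starting OD595 of 0.01. OD595 was measured every 30 min for 14 h, with the first reading used as background. Fitness is the optical density at the switch to stationary phase as a fraction of the robust mean of no-drug control wells, capped at 1.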

[2] = test system: S. aureus DSM 20231; experiment: Bliss interaction score (quartile over a dose matrix) (fitness difference); higher = more antagonism (negative = synergy)
Procedure, shortened: (§2)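 The Bliss score takes observed fitness and subtracts the expected fitness, calculated as a product of single-drug fitness values. Those single-drug values were inferred from the combination data. Fitness is OD595 at entry into stationary phase divided by the plate's robust no-drug mean, capped at 1, and the score is summarised by quartiles across technical, biological and donor/recipient replicates.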

[3] = test system: S. aureus Newman; experiment: as above
Procedure, shortened: as §2

[4] = test system: S. pneumoniae D39V; experiment: as above
Procedure, shortened: as §2

[5] = test system: B. subtilis 168; experiment: as above
Procedure, shortened: as §2

[6] = test system: S. pneumoniae D39V; experiment: fitness (endpoint OD595 vs no drug) (fraction); higher = more growth
Procedure, shortened: as §1

[7] = first compound 0.125 µg/mL, partner 0.125 µg/mL
[8] = first compound 0.125 µg/mL, partner 0.25 µg/mL
[9] = first compound 0.125 µg/mL, partner 0.5 µg/mL
[10] = first compound 0.25 µg/mL, partner 0.125 µg/mL
[11] = first compound 0.25 µg/mL, partner 0.25 µg/mL
[12] = first compound 0.25 µg/mL, partner 0.5 µg/mL
[13] = first compound 0.007 µg/mL, partner 0.2 µg/mL
[14] = first compound 0.007 µg/mL, partner 0.4 µg/mL
[15] = first compound 0.007 µg/mL, partner 0.8 µg/mL
[16] = first compound 0.014 µg/mL, partner 0.2 µg/mL
[17] = first compound 0.014 µg/mL, partner 0.4 µg/mL
[18] = first compound 0.014 µg/mL, partner 0.8 µg/mL
[19] = first compound 0.028 µg/mL, partner 0.2 µg/mL
[20] = first compound 0.028 µg/mL, partner 0.4 µg/mL
[21] = first compound 0.028 µg/mL, partner 0.8 µg/mL
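For Bliss interaction score (quartile over a dose matrix) in this document: first quartile when negative (synergy) and third quartile when positive (antagonism).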
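For fitness (endpoint OD595 vs no drug) in this document: OD595 on entry to stationary phase over no-drug wells; at most 1.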

Compound | fitness [1, 7] | fitness [1, 8] | fitness [1, 9] | fitness [1, 10] | fitness [1, 11] | fitness [1, 12] | Bliss interaction score [2] | Bliss interaction score [3] | Bliss interaction score [4] | Bliss interaction score [5] | fitness [6, 13] | fitness [6, 14] | fitness [6, 15] | fitness [6, 16] | fitness [6, 17] | fitness [6, 18] | fitness [6, 19] | fitness [6, 20] | fitness [6, 21] | further results
CC1(C)S[C@@H]2[C@H](NC(=O)[C@H](N)c3ccc(O)cc3)C(=O)N2[C@H]1C(=O)O [Amoxicillin] + COc1cc(Cc2cnc(N)nc2N)cc(OC)c1OC [Trimethoprim] | 0.189 | 0.11 | 0.0261 | 0.0479 | 0.037 | 0.033 | -0.0714 | 0.0661 | 0.174 | -0.139 | – | – | – | – | – | – | – | – | – | fitness ([1]; first compound 0.0625 µg/mL, partner 0.125 µg/mL): 0.511; fitness ([1]; first compound 0.0625 µg/mL, partner 0.25 µg/mL): 0.401; fitness ([1]; first compound 0.0625 µg/mL, partner 0.5 µg/mL): 0.0356; fitness ([1]; first compound 0.0625 µg/mL, partner 1 µg/mL): 0.0213; fitness ([1]; first compound 0.125 µg/mL, partner 1 µg/mL): 0.0335; fitness ([1]; first compound 0.25 µg/mL, partner 1 µg/mL): 0.0125; fitness ([1]; first compound 0.5 µg/mL, partner 0.125 µg/mL, one replicate): 0.0327; fitness ([1]; first compound 0.5 µg/mL, partner 0.25 µg/mL, one replicate): 0.0355; fitness ([1]; first compound 0.5 µg/mL, partner 0.5 µg/mL, one replicate): 0.0427
CO/N=C(\C(=O)N[C@@H]1C(=O)N2C(C(=O)[O-])=C(C[N+]3(C)CCCC3)CS[C@H]12)c1csc(N)n1 [Cefepime] + CC(=O)NC[C@H]1CN(c2ccc(N3CCOCC3)c(F)c2)C(=O)O1 [Linezolid] | 0.843 | 0.625 | 0.287 | 0.956 | 0.655 | 0.375 | 0.11 | 0.0424 | 0.165 | 0.0847 | 0.827 | 0.567 | 0.253 | 0.797 | 0.573 | 0.259 | 0.751 | 0.512 | 0.244 | fitness ([1]; first compound 0.125 µg/mL, partner 1 µg/mL, one replicate): 0.0467; fitness ([1]; first compound 0.25 µg/mL, partner 1 µg/mL, one replicate): 0.0593; fitness ([1]; first compound 0.5 µg/mL, partner 0.125 µg/mL): 0.903; fitness ([1]; first compound 0.5 µg/mL, partner 0.25 µg/mL): 0.669; fitness ([1]; first compound 0.5 µg/mL, partner 0.5 µg/mL): 0.322; fitness ([1]; first compound 0.5 µg/mL, partner 1 µg/mL, one replicate): 0.052; fitness ([6]; first compound 0.0078 µg/mL, partner 0.105 µg/mL): 0.934; fitness ([6]; first compound 0.0078 µg/mL, partner 0.21 µg/mL): 0.825; fitness ([6]; first compound 0.0078 µg/mL, partner 0.42 µg/mL): 0.692; fitness ([6]; first compound 0.0155 µg/mL, partner 0.105 µg/mL): 0.912; fitness ([6]; first compound 0.0155 µg/mL, partner 0.21 µg/mL): 0.796; fitness ([6]; first compound 0.0155 µg/mL, partner 0.42 µg/mL): 0.608; fitness ([6]; first compound 0.031 µg/mL, partner 0.105 µg/mL): 0.645; fitness ([6]; first compound 0.031 µg/mL, partner 0.21 µg/mL): 0.504; fitness ([6]; first compound 0.031 µg/mL, partner 0.42 µg/mL): 0.258
CO/N=C(\C(=O)N[C@@H]1C(=O)N2C(C(=O)[O-])=C(C[N+]3(C)CCCC3)CS[C@H]12)c1csc(N)n1 [Cefepime] + CCC[C@@H]1C[C@@H](C(=O)N[C@@H]([C@H]2O[C@H](SC)[C@H](O)[C@@H](O)[C@H]2O)[C@@H](C)O)N(C)C1 [Lincomycin] | – | – | – | – | – | – | 0.188 | 0.0822 | 0.2 | -0.0344 | 0.734 | 0.521 | 0.198 | 0.729 | 0.523 | 0.185 | 0.674 | 0.458 | 0.133 | fitness ([1]; first compound 0.125 µg/mL, partner 0.1 µg/mL): 0.877; fitness ([1]; first compound 0.125 µg/mL, partner 0.2 µg/mL): 0.876; fitness ([1]; first compound 0.25 µg/mL, partner 0.1 µg/mL): 0.939; fitness ([1]; first compound 0.25 µg/mL, partner 0.2 µg/mL): 0.908; fitness ([1]; first compound 0.5 µg/mL, partner 0.1 µg/mL): 0.906; fitness ([1]; first compound 0.5 µg/mL, partner 0.2 µg/mL): 0.835; fitness ([6]; first compound 0.0078 µg/mL, partner 0.215 µg/mL): 0.909; fitness ([6]; first compound 0.0078 µg/mL, partner 0.43 µg/mL): 0.823; fitness ([6]; first compound 0.0078 µg/mL, partner 0.86 µg/mL): 0.593; fitness ([6]; first compound 0.0155 µg/mL, partner 0.215 µg/mL): 0.878; fitness ([6]; first compound 0.0155 µg/mL, partner 0.43 µg/mL): 0.821; fitness ([6]; first compound 0.0155 µg/mL, partner 0.86 µg/mL): 0.514; fitness ([6]; first compound 0.031 µg/mL, partner 0.215 µg/mL): 0.82; fitness ([6]; first compound 0.031 µg/mL, partner 0.43 µg/mL): 0.723; fitness ([6]; first compound 0.031 µg/mL, partner 0.86 µg/mL): 0.323
